From patent US9975861B2, “Dual inhibitor compounds for use in the treatment of neurodegenerative disorders and alzheimer's disease” (FONDAZIONE ISTITUTO ITALIANO DI TECNOLOGIA, priority 2014, dated 2018)

Tests used:
[1] = tested on: primary astrocytes and microglial cells; experiment: Nitrites measurement (Griess reaction) in LPS-stimulated primary glial cells; format: cell-based, rat; details: for reduction of LPS-induced nitrite production: compounds 10 μM for 1 hour, then LPS 10 μg/mL for 24 hours, astrocytes and microglia, potency compared with 6-amino triazinones A-C (FIGS. 2A, 2B); for nitrite production in astrocyte cells: compounds 10 μM, LPS 10 μg/mL 24 hours, astrocyte cells (FIG. 2A)
Method: Astrocytes were prepared from neonatal (P2) rat cerebral cortex, as previously described by Luna-Medina et al. [Luna-Medina, R.; Cortes-Canteli, M.; Alonso, M.; Santos, A.; Martinez, A.; Perez-Castillo, A. Regulation of inflammatory response in neural cells in vitro by thiadiazolidinones derivatives through peroxisome proliferator-activated receptor gamma activation. J. Biol. Chem. 2005, 280, 21453-21462].
Briefly, after removal of the meninges, the cerebral cortex was dissected, dissociated, and incubated with 0.25% trypsin/EDTA at 37° C. for 1 hour. After centrifugation, the pellet was washed 3 times with Hank's balanced salt solution (HBSS) (Gibco) and the cells were placed on noncoated flasks and maintained in HAMS/Dulbecco's modified eagle's medium (DMEM) (1:1) medium containing 10% of fetal bovine serum (FBS). After 15 days, the flasks were agitated on an orbital shaker for 4 hours at 240 rpm at 37° C., the supernatant was collected, centrifuged, and the cellular pellet containing the microglial cells resuspended in complete medium (HAMS/DMEM (1:1) containing 10% FBS) and seeded on uncoated 96-well plates. Cells were allowed to adhere for 2 hours, and the medium was removed to eliminate nonadherent oligodendrocytes. New fresh medium containing 10 ng/mL of granulocyte-macrophage colony-stimulating factor (GM-CSF) was added. The remaining astroglial cells adhered on the flasks were then trypsinized, collected, centrifugated, and plated onto 96-well plates with complete medium. The purity of cultures obtained by this procedure was >98% as determined by immunofluorescence with the OX42 (microglial marker) and the glial fibrillary acidic protein (GFAP, astroglial marker) antibodies.
The potential anti-inflammatory activity of the selected compounds was tested by evaluating the production of nitrites from primary cultured glial cells. Primary cultures of astrocytes and microglia were incubated with the selected compounds (10 μM) for 1 hour, and then cells were cultured for another 24 hours with a potent inflammatory agent, such as lipopolysaccharide (LPS) (10 μg/mL). LPS is able to induce nitrite production and accumulation in the culture medium, which was assayed by the standard Griess reaction. Supernatants were collected from the media and mixed with an equal volume of Griess reagent (Sigma). Samples were then incubated at rt for 15 minutes and absorbance read using a plate reader at 492/540 nm.

[2] = tested on: triggering receptor expressed on myeloid cells 2 (TREM2); experiment: Western blot analysis of TREM2 (M2 marker) in LPS-treated microglia cells; format: cell-based, rat; details: LPS 100 ng/mL, 24 hours co-treatment; microglia cells (FIG. 5c)
Method: Mixed glial cell cultures were prepared from cerebral cortex of newborn Wistar rats (Rattus norvegicus), as previously described [Monti, B.; D'Alessandro, C.; Farini, V.; Bolognesi, A.; Polazzi, E.; Contestabile, A.; Stirpe, F.; Battelli, M. G. In vitro and in vivo toxicity of type 2 ribosome-inactivating proteins lanceolin and stenodactylin on glial and neuronal cells. Neurotoxicology 2007, 28, 637-644]. Briefly, brain tissue was cleaned from meninges, trypsinized for 15 minutes at 37° C. and, after mechanical dissociation, the cell suspension was washed and plated on poly-L-lysine (Sigma-Aldrich, St. Louis, Mo., USA, 10 μg/mL) coated flasks (75 cm^2). Mixed glial cells were cultured for 10-13 days in Basal Medium Eagle (BME, Life technologies Ltd, Paisley, UK) supplemented with 100 mL/L heat-inactivated FBS (Life technologies), 2 mmol/L glutamine (Sigma-Aldrich) and 100 μmol/L gentamicin sulfate (Sigma-Aldrich).
Microglial cells were harvested from mixed glial cell cultures by mechanical shaking, resuspended in fresh medium without serum and plated on uncoated 35 mm Ø dishes at a density of 1.5×10^6 cells/1.5 mL medium/well for western blot analysis or on 96 wells at 1×10^5 cells/0.2 mL medium/well for MTT assay. […]
J. Biol. Chem. 1951, 193, 265-275]. […] Labelled proteins were detected by using the enhanced chemiluminescence method (ECL; Bio-RAD). […]

Row | Structure (SMILES) | reduction of LPS-induced nitrite production [1] | nitrite production in astrocyte cells [1] | TREM2 expression reduced by LPS [2]
1 | CCNC1=NC(c2ccc(F)cc2)NC(=O)N1 (racemic) [Example 3, 6-(ethylamino)-4-(4-fluorophenyl)-3,4-dihydro-1,3,5-triazin-2(1H)-one] | higher potency | restore nitrite production to basal level | restored
2 | CCCNC1=NC(c2ccc(F)cc2)NC(=O)N1 (stereo not drawn) [Example 6, 4-(4-fluorophenyl)-6-(propylamino)-3,4-dihydro-1,3,5-triazin-2(1H)-one] | higher potency | restore nitrite production to basal level | restored
